Active and inactive are the calls of the source.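 Rule for the calls: active = a fitted half-maximal concentration EC50 for the rise in nuclear signal no higher than ten times the top dose tested; inconclusive = flat fit with activity between 30% and 70%, or unusable fit; inactive = EC50 beyond ten times the top dose.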
Each compound was assayed against Hypoxia-inducible factor 1-alpha (Homo sapiens) (UniProt Q16665) (assay: HIF pathway activation, GFP-HIF1alpha translocation – imaging, fluorescence, U2OS GFP-HIF1alpha, confirmation (AID 434951)). Settings: U2OS GFP-HIF1alpha nuclear intensity, high-content imaging.
Hypoxia-inducible factor 1-alpha (Homo sapiens), sequence (Q16665 whole entry, looked up): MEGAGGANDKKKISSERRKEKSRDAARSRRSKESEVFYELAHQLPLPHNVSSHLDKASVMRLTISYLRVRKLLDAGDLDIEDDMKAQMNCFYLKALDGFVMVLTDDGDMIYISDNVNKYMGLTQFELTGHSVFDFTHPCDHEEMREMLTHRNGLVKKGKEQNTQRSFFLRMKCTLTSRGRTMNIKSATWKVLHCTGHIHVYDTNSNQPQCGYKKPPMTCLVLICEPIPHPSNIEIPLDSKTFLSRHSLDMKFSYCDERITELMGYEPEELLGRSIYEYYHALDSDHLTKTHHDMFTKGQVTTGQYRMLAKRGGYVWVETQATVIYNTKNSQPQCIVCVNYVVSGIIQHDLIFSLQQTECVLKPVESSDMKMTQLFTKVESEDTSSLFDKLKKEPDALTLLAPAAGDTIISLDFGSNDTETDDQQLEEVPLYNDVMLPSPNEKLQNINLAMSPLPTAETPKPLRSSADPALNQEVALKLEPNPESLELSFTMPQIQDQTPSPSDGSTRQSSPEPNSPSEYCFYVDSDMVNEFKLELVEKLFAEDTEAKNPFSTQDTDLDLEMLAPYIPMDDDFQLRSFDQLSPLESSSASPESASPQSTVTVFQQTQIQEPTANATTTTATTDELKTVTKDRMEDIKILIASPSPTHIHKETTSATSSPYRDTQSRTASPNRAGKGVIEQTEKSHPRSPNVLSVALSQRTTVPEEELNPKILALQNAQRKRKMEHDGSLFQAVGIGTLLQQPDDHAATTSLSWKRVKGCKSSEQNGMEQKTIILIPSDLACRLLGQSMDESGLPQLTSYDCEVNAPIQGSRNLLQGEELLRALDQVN
`O=C(N/N=C/c1ccccn1)c1ccc(Cl)cc1` was tested, and the EC50 was 12.8 µM. In the case of `CCN(CC)CCn1c2ccccc2c2cnc(N)c(C#N)c21`, the EC50 is reported as > 35 µM (inactive). For `CCOc1cccc(-c2c(C(=O)N/N=C/c3ccc(Br)cc3)nnn2-c2nonc2N)c1`, the EC50 was > 35 µM (inactive). With `c1cnc(N2CCN(c3ccc4ccccc4n3)CC2)nc1` the EC50 was > 35 µM (inactive). Work on `O=C(NCC1CCCO1)c1cc(-c2ccccc2)on1` (stereo unspecified) yielded an EC50 of 6.78 µM. With `COc1cc2c(cc1OC)C(C)N(S(=O)(=O)c1ccc(Cl)nc1)CC2` (stereo unspecified) the EC50 was > 35 µM (inactive). `Oc1[nH]c2ccccc2c1N=NC(=S)N1CCOCC1` was tested, and the EC50 was 8 µM. In the case of `COc1cccc(C(=O)CN2C(=O)C(C)(C)Oc3ccc(C(=O)N4CCOCC4)cc32)c1`, the EC50 is reported as > 35 µM (inactive). `O=[N+]([O-])c1cc(Cl)cc(/C=N\Nc2ccccn2)c1O` gave an EC50 of 1.65 µM. In the case of `CCCCOc1ccc(C(=O)NCC(=O)OC2CCOC2=O)cc1` (stereo unspecified), the EC50 is reported as 34.7 µM. In the case of `Cc1ccc(C(=O)CSc2cc(C)[nH]c(=O)n2)cc1`, the EC50 is reported as > 35 µM (inactive). `Cc1ccc(S(=O)(=O)Nc2cc(-c3ccc(Cl)cc3)nn2C)cc1` was tested, and the EC50 was > 35 µM (inactive). In the case of `COc1ccc(CC(NC(C)=O)C(=O)NC2CCN(C(=O)Nc3ccc(Cl)cc3)CC2)cc1OC` (stereo unspecified), the EC50 is reported as > 35 µM (inactive). `COc1ccc(C)cc1NC(=O)c1ccc(N(C)S(C)(=O)=O)cc1` was tested, and the EC50 was > 35 µM (inactive). With `COc1cccc(/C=N/NC(=O)c2c(C)nc3ccc(Br)cn23)c1O` the EC50 was 5.52 µM. In the case of `CCOC(=O)CCS(=O)(=O)c1nc(-c2ccccc2)cc(C(F)(F)F)n1`, the EC50 is reported as > 35 µM (inactive). `O=C(N/N=C\c1c(O)ccc2ccccc12)c1cncc(Br)c1` showed an EC50 of 6.48 µM. In the case of `CCCNC(=S)N1CCCC(c2nc3ccccc3[nH]2)C1` (stereo unspecified), the EC50 is reported as > 35 µM (inactive). With `Cc1ccc(/C=N\Nc2nc3ccc(Cl)cc3[nH]2)o1` the EC50 was > 35 µM (inactive). In the case of `Cc1cc(C)n(-c2ccc3cccc(NS(C)(=O)=O)c3n2)n1`, the EC50 is reported as 5.59 µM. `OCc1ccc(N=Nc2ccccc2)cc1` was tested, and the EC50 was > 35 µM (inactive). With `Oc1c(C=C2N=c3ccccc3=N2)sc(=S)n1-c1ccccc1` the EC50 was > 35 µM (inactive). Compound `O=C(Nc1ccccc1O)c1ccc(NC(=O)C2CC2)cc1` has an EC50 of 10.8 µM. With `CCOc1cc(/C=N/NC(=O)c2c(-c3ccccc3)noc2C)ccc1O` the EC50 was > 35 µM (inactive). `Cc1ccc2nc(-c3ccccn3)c(Nc3ccccc3C)n2c1` was tested, and the EC50 was 6.13 µM. In the case of `CC(C)c1nc(CNC(=O)CCc2nnc(-c3ccsc3)o2)cs1`, the EC50 is reported as > 35 µM (inactive). `Cc1ccc2nc(SCC(=O)N3CCCCCC3)nc(=O)n2c1` was tested, and the EC50 was > 35 µM (inactive). With `CC1CN/C(=C\C(=O)c2ccc(Br)cc2)C(=O)N1` (stereo unspecified) the EC50 was > 35 µM (inactive). In the case of `COc1ccc(NC(=O)CNC(=O)Cc2cccc3ccccc23)c(OC)c1`, the EC50 is reported as > 35 µM (inactive). Work on `COc1cc(C(=O)N/N=C(\c2ccccc2)c2ccccn2)cc(OC)c1OC` yielded an EC50 of 11.3 µM. With `CCN(CC)CCNc1cc(C)nc2c1C(=O)C(=O)C=C2N1CCCCC1` the EC50 was 3.63 µM. With `CCC(=O)NC(c1ccccc1OC)c1ccc2cccnc2c1O` (stereo unspecified) the EC50 was 6.11 µM. `CCc1ccc(NC(=O)COC(=O)c2cccs2)cc1` was tested, and the EC50 was > 35 µM (inactive). With `CCC(=O)N1CCN(c2nc3ccc(Br)cc3s2)CC1` the EC50 was > 35 µM (inactive). For `Cc1ccn2c(Nc3ccccc3C)c(-c3ccccn3)nc2c1`, the EC50 was 6.66 µM. With `Cc1nc2cc(-c3ccccc3)sc2c(=O)n1N` the EC50 was > 35 µM (inactive). With `O=C1C(=O)c2ccccc2C(O)=C1c1cccc([N+](=O)[O-])c1` the EC50 was > 35 µM (inactive). For `COc1ccc(OC)c(NC(=O)CCc2nnc3ccc(NCc4ccco4)nn23)c1`, the EC50 was > 35 µM (inactive). In the case of `CCC(C)(C)c1nnc(NC(=O)C2CCN(C(=O)c3ccco3)CC2)s1`, the EC50 is reported as > 35 µM (inactive). For `CCOC(=O)C1(C)NC(c2ccc(OC)cc2OC)C2C(=O)N(CC)C(=O)C21` (stereo unspecified), the EC50 was > 35 µM (inactive). In the case of `Cc1cc(=O)[nH]c(SCC(=O)Nc2nonc2C)n1`, the EC50 is reported as > 35 µM (inactive). In the case of `CC(=O)c1cccc(NC(=O)CN(C)S(=O)(=O)c2cccc3nsnc23)c1`, the EC50 is reported as > 35 µM (inactive). In the case of `O=C(NNC(=O)C(O)(c1ccccc1)c1ccccc1)C1CC1`, the EC50 is reported as > 35 µM (inactive). For `CCOC(=O)c1sc(N(Cc2ccccc2)C(=O)COC(=O)c2ccc(O)cc2)nc1C`, the EC50 was 12.2 µM. In the case of `O=[N+]([O-])c1cccc(/C=C/c2ccc3cccc(O)c3n2)c1`, the EC50 is reported as 33.9 µM. Work on `CCN(CC)c1ccc(/C=N/Nc2nc3ccccc3[nH]2)c(O)c1` yielded an EC50 of 6.95 µM. `Oc1ccccc1/C=N/Nc1nc2ccccc2o1` gave an EC50 of 8.18 µM. Compound `Cc1c(Cl)c([N+](=O)[O-])nn1Cc1ccc(C(=O)N/N=C\c2cc(Cl)ccc2O)o1` has an EC50 of 9.26 µM. `Cc1ccc(S(=O)(=O)N2CCN(c3ccccn3)CC2)cc1` was tested, and the EC50 was > 35 µM (inactive). `O=C(NCc1ccco1)c1cc(-c2cccs2)on1` showed an EC50 of 34.5 µM. In the case of `COc1ccc(CCNc2nncc(=O)[nH]2)cc1OC`, the EC50 is reported as > 35 µM (inactive). In the case of `CC(=O)NC(c1cccc([N+](=O)[O-])c1)c1ccc2cccnc2c1O` (stereo unspecified), the EC50 is reported as 10.7 µM. `COc1ccc(N(CC(=O)Nc2cc(OC)ccc2OC)S(=O)(=O)c2c(C)noc2C)cc1` was tested, and the EC50 was > 35 µM (inactive). `CN(C)c1ccc(CNC(=O)CCS(=O)(=O)c2ccc3c(c2)oc(=O)n3C)cc1` was tested, and the EC50 was > 35 µM (inactive). For `COc1ccc2c(c1)c(C(=O)CN1CCc3ccccc3C1)c(C)n2C`, the EC50 was > 35 µM (inactive). In the case of `COc1ccc(C(=O)NCCc2nc3cc([N+](=O)[O-])ccc3n2C)cc1`, the EC50 is reported as > 35 µM (inactive). In the case of `O=C(COC(=O)Cc1ccc(S(=O)(=O)N2CCCCC2)s1)Nc1ccc2c(c1)OCO2`, the EC50 is reported as > 35 µM (inactive). `COc1ccc(NC(=O)CSc2nc3c(c(=O)[nH]2)CCC3)cc1OC` was tested, and the EC50 was > 35 µM (inactive). `O=C(N/N=C/c1ccc(O)cc1O)c1ccc(CN2C(=O)c3cccc4cccc2c34)cc1` gave an EC50 of 19.6 µM. For `COc1ccc(NC(=O)CCS(=O)(=O)c2ccc3c(c2)CCN3C(C)=O)cc1`, the EC50 was > 35 µM (inactive). In the case of `CCNS(=O)(=O)c1ccc(NC(=O)c2cncc(Br)c2)cc1`, the EC50 is reported as > 35 µM (inactive). In the case of `COc1ccc(O)c(/C=N/NC(=O)c2ccc(OCc3cccc(Br)c3)cc2)c1`, the EC50 is reported as 5.72 µM. In the case of `CCOC(=O)c1c(NS(=O)(=O)c2ccccc2)n(CCCOC)c2nc3ccccc3nc12`, the EC50 is reported as > 35 µM (inactive). In the case of `C=C(C)CNC(=O)c1ccc2nc(Cc3ccc(OC)cc3)oc2c1`, the EC50 is reported as > 35 µM (inactive). In the case of `FC(F)(F)c1cnc(N2CCN(C(=S)NCc3ccccc3)CC2)c(Cl)c1`, the EC50 is reported as > 35 µM (inactive). Work on `COc1ccc(CCNC(=O)c2cc(-c3ccco3)on2)cc1OC` yielded an EC50 of 10.8 µM. For `CCN1CN(CCc2ccccc2)CNC1=S`, the EC50 was > 35 µM (inactive). `CCc1ccc(NC(=O)CSc2ccc(-c3ccccn3)nn2)cc1` showed an EC50 of 10.5 µM. For `O=C(/C=C/c1ccccc1)NCCc1nc2ccccc2[nH]1`, the EC50 was > 35 µM (inactive). For `COc1ccc(CC(NC(C)=O)C(=O)NC2CCN(C(=O)c3cccc(Cl)c3)CC2)cc1OC` (stereo unspecified), the EC50 was > 35 µM (inactive). `COC(=O)Nc1nnc(Cc2ccc(OC)cc2)s1` was tested, and the EC50 was > 35 µM (inactive). In the case of `O=c1c2ccccc2nc(COc2ccccc2)n1/N=C/c1ccc(O)cc1O`, the EC50 is reported as 9.68 µM. With `CN(c1cccc(Cl)c1)S(=O)(=O)c1cccc(C(=O)Nc2nc3ccccc3[nH]2)c1` the EC50 was > 35 µM (inactive). For `Cn1nnc2cc(C(=O)N3CCC(c4ccccc4)C3)ccc21` (stereo unspecified), the EC50 was > 35 µM (inactive). `CCOc1ccc(C(=O)NCC2CCCO2)cc1OCC` (stereo unspecified) was tested, and the EC50 was > 35 µM (inactive). In the case of `O=C(Nc1cccc(Cl)c1)Nc1cccc(C(=O)O)c1`, the EC50 is reported as > 35 µM (inactive). For `CCCn1c(SCC(=O)Nc2ccccc2CC)nnc1C(C)C`, the EC50 was > 35 µM (inactive). For `CC(NC(=O)c1cc2c(s1)CS(=O)(=O)C2)c1ccccc1` (stereo unspecified), the EC50 was > 35 µM (inactive). `CC(=O)c1cccc(NS(=O)(=O)c2ccc(-c3cc(C)no3)s2)c1` was tested, and the EC50 was > 35 µM (inactive). With `CN(CCS(=O)(=O)c1ccc(Cl)cc1)Cc1cccnc1` the EC50 was > 35 µM (inactive). Compound `CCCC(=O)NC(c1ccccc1OC)c1ccc2cccnc2c1O` (stereo unspecified) has an EC50 of 5.97 µM. Work on `Cn1c(NN=O)nc2ccccc21` yielded an EC50 of 9.61 µM. `CCSc1nc(NCCN(C)C)c2c3c(sc2n1)COC(C)(CC)C3` (stereo unspecified) was tested, and the EC50 was > 35 µM (inactive). With `Cn1c(SCC(=O)Nc2ccccc2)nnc1-c1ccc(NC(=O)CCc2ccccc2)cc1` the EC50 was > 35 µM (inactive). For `CCCCc1nnc(NC(=O)c2ccc3[nH]c(=O)c(=O)[nH]c3c2)s1`, the EC50 was > 35 µM (inactive). For `O=C(O)c1ccccc1Nc1ccc([N+](=O)[O-])cc1C(=O)O`, the EC50 was > 35 µM (inactive). For `CCCCn1c(=O)c2c(O)cc(=O)oc2c2ccccc21`, the EC50 was > 35 µM (inactive). In the case of `CCc1ccc(OCC(=O)Nc2ccncc2)c(Br)c1`, the EC50 is reported as > 35 µM (inactive). Work on `Oc1c(N=Nc2ccccn2)ccc2ccccc12` yielded an EC50 of 3.98 µM. `Cn1ncc(Br)c1C(=O)OCC(=O)Nc1nc(-c2ccccc2)cs1` was tested, and the EC50 was > 35 µM (inactive). For `O=[N+]([O-])c1cccnc1N/N=C/c1ccccc1O`, the EC50 was 34.5 µM. With `CCOC(=O)N1CCC(Nc2c(-c3ccccc3)c(=O)c2=O)CC1` the EC50 was > 35 µM (inactive). With `Cc1c(/C=N/NC(N)=O)c2ccccn2c1C(=O)c1ccncc1` the EC50 was > 35 µM (inactive). For `Cc1ccc(NC(=O)Nc2cccc(F)c2)nc1`, the EC50 was > 35 µM (inactive). With `CCOC(=O)c1c(-c2ccccc2)oc2ccc(OCC(O)CN(C)C)cc12` (stereo unspecified) the EC50 was 33.8 µM. In the case of `COc1ccc(C(=O)CCNc2ccc(F)cc2)cc1`, the EC50 is reported as > 35 µM (inactive). With `CC1CCN(Cc2c(C(=O)N/N=C/c3cc(Cl)ccc3O)nnn2-c2nonc2N)CC1` the EC50 was 13.9 µM. Work on `Cc1nc(-n2[nH]c3c(c2=O)CCCC3)[nH]c(=O)c1Cc1ccccc1` yielded an EC50 of 9.42 µM. With `COC(=O)C1=C(C)N(Cc2ccc(OC)cc2)C(=O)C1` the EC50 was > 35 µM (inactive). `[O-]/C(=C(\C(=S)Nc1cccc2ccccc12)[n+]1ccccc1)c1cccs1` was tested, and the EC50 was > 35 µM (inactive). `COC(=O)CNC(=O)CSc1nnc2cc(C)c3ccccc3n12` was tested, and the EC50 was > 35 µM (inactive). `CCc1nc(N2CCN(C(=O)c3ccco3)CC2)c2c3c(sc2n1)CCCC3` was tested, and the EC50 was > 35 µM (inactive). `COc1ccc(N2CCN(C(=O)C3COc4ccccc4O3)CC2)cc1` (stereo unspecified) was tested, and the EC50 was > 35 µM (inactive). `Cc1nnc(-c2ccccc2)nc1N(C)C` was tested, and the EC50 was > 35 µM (inactive). With `COC(=O)C(NC(=O)c1c(C)nn(C)c1Cl)c1ccccc1` (stereo unspecified) the EC50 was > 35 µM (inactive). For `COC(=O)Nc1ccc(S(=O)(=O)N(C)C)cc1`, the EC50 was > 35 µM (inactive).

Source: PubChem BioAssay AID434951 (Broad Institute, 2010)
